Measurements reported in US9745311B2, “Substituted pyrrolo[2,3-b]pyrazines as FGFR inhibitors” (Incyte Corporation, priority 2012, dated 2017).
Like-named read-outs stand apart in the source and are kept apart here.

What was measured:
FGFR3 enzyme (Millipore) = FGFR3 enzyme (Millipore) (Homo sapiens (Human), UniProt P22607); conditions: read-out: FGFR3 IC50, ATP 140 μM
Protocol: (§1) The inhibitor potency of compounds was measured in an enzyme assay that measures peptide phosphorylation using FRET measurements to detect product formation. Inhibitors were serially diluted in DMSO and a volume of 0.5 μL was transferred to the wells of a 384-well plate. For FGFR3, a 10 μL volume of FGFR3 enzyme (Millipore) diluted in assay buffer (50 mM HEPES, 10 mM MgCl2, 1 mM EGTA, 0.01% Tween-20, 5 mM DTT, pH 7.5) was added to the plate and pre-incubated for 5-10 minutes. Appropriate controls (enzyme blank and enzyme with no inhibitor) were included on the plate. […] The plate was incubated at 25° C. for 1 hr. […] The plate was allowed to equilibrate for ˜1 hr before scanning the wells on a PheraStar plate reader.
(§2) GraphPad prism3 was used to analyze the data. The IC50 values were derived by fitting the data to the equation for a sigmoidal dose-response with a variable slope. Y=Bottom+(Top−Bottom)/(1+10^((Log IC50−X)*HillSlope)) where X is the logarithm of concentration and Y is the response.

FGFR1 = FGFR1 (Homo sapiens (Human), UniProt P11362); assay: FGFR Enzymatic Assay (FGFR1); type: biochemical; conditions: enzyme 0.02 nM, ATP 210 μM
FGFR1, sequence (P11362 22-822): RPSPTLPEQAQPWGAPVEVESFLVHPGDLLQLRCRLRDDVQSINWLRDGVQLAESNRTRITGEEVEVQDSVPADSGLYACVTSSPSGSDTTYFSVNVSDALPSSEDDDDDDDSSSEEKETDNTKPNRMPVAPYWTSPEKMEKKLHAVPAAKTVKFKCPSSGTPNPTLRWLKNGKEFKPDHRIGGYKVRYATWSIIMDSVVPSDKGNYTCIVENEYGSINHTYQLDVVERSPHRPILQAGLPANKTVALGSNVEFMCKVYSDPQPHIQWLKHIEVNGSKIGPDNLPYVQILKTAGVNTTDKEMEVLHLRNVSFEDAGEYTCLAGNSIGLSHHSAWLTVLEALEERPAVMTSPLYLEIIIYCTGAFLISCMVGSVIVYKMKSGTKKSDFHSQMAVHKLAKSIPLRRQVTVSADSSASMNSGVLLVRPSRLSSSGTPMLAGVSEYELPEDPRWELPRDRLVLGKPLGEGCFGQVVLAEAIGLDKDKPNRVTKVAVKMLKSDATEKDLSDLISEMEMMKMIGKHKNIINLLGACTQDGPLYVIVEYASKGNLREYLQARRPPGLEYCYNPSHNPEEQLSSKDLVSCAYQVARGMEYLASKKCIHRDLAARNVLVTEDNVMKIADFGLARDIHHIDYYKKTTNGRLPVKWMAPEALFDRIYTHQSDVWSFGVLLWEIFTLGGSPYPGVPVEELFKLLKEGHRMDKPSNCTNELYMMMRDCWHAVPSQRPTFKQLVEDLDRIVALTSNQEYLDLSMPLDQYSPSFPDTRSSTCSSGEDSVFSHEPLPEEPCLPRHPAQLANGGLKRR
Protocol: as §1, §2

FGFR2 = FGFR2 (Homo sapiens (Human), UniProt P21802); assay: FGFR Enzymatic Assay (FGFR2); type: biochemical;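 also: FRET read-out of peptide phosphorylation by the purified kinase, with enzyme-free blank and uninhibited enzyme as controls, potency from a variable-slope sigmoidal dose-response fit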
FGFR2, sequence (P21802 22-821): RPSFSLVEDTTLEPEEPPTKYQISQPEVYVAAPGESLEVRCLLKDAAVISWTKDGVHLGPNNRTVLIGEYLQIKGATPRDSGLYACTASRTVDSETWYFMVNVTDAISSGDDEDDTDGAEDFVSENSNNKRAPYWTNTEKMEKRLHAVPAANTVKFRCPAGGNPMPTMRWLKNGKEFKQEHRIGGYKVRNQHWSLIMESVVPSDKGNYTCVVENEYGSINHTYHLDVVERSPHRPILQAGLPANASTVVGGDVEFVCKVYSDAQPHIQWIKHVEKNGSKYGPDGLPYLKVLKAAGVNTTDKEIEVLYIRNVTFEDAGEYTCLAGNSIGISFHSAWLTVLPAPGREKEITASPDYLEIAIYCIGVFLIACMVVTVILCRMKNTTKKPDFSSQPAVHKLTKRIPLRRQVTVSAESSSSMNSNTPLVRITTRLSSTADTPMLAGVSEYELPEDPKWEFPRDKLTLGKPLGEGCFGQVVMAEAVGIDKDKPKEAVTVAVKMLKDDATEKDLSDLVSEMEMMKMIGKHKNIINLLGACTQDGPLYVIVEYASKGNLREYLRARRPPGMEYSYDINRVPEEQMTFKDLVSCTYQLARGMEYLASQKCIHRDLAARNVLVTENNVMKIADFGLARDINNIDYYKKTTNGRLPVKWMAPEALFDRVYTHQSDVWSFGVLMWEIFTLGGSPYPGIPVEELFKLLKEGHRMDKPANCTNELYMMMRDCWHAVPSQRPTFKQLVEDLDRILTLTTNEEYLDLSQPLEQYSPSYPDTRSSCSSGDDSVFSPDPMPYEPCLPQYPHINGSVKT
Protocol: as §1, §2

[1] = enzyme 0.01 nM, ATP 100 μM, read-out: FGFR2 IC50

FGFR3 enzyme (Millipore), sequence (P22607 23-806): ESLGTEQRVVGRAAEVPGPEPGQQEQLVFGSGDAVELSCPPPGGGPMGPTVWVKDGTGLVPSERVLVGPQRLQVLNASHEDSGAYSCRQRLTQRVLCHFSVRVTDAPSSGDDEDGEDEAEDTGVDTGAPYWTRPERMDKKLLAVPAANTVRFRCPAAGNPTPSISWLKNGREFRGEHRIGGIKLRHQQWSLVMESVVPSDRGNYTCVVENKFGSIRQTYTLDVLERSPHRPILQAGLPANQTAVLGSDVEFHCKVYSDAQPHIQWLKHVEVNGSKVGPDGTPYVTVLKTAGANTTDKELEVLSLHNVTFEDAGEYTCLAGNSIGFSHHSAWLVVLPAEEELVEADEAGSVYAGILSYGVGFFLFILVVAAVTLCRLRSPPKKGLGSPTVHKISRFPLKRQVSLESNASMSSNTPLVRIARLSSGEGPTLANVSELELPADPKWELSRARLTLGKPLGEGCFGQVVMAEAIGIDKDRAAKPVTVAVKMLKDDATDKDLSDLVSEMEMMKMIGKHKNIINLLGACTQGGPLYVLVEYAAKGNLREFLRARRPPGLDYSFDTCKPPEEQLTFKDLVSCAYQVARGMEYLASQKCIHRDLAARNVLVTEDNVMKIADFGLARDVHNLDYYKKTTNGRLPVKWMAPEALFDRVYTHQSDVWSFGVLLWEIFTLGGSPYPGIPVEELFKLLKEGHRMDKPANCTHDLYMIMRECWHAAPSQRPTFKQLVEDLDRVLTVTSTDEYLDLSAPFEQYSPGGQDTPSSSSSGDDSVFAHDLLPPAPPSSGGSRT

| Compound | IC50 (FGFR3 enzyme (Millipore); class symbols) [nM] | IC50 (FGFR1) [nM] | IC50 (FGFR2; [1]) [nM] | IC50 (FGFR3 enzyme (Millipore); numeric bounds) [nM] | IC50 (FGFR2) [nM] |
| --- | --- | --- | --- | --- | --- |
| COc1cc(CCc2cnc3[nH]c(-c4ccc(N5CCN(C)CC5)cc4)cc3n2)cc(OC)c1 [Example 1, 2-[2-(3,5-dimethoxyphenyl)ethyl]-6-[4-(4-methylpiperazin-1-yl)phenyl]-5H-pyrrolo[2,3-b]pyrazine] | < 100 | < 100 | < 100 | – | – |
| CCN1CCN(c2ccc(-c3cc4nc(CCc5cc(OC)cc(OC)c5)cnc4[nH]3)cc2)CC1 [Example 2, 2-[2-(3,5-dimethoxyphenyl)ethyl]-6-[4-(4-ethylpiperazin-1-yl)phenyl]-5H-pyrrolo[2,3-b]pyrazine] | < 100 | < 100 | < 100 | – | – |
| COc1cc(CCc2cnc3[nH]c(-c4ccccc4)cc3n2)cc(OC)c1 [Example 3, 2-(3,5-dimethoxyphenethyl)-6-phenyl-5H-pyrrolo[2,3-b]pyrazine] | < 100 | < 100 | < 100 | – | – |
| COc1ccc(-c2cc3nc(CCc4cc(OC)cc(OC)c4)cnc3[nH]2)cc1 [Example 5, 2-[2-(3,5-dimethoxyphenyl)ethyl]-6-(4-methoxyphenyl)-5H-pyrrolo[2,3-b]pyrazine] | < 100 | < 100 | < 100 | – | – |
| COc1cc(CCc2cnc3[nH]c(-c4ccc(CN5CCCCC5)cc4)cc3n2)cc(OC)c1 [Example 11, 2-[2-(3,5-dimethoxyphenyl)ethyl]-6-[4-(piperidin-1-ylmethyl)phenyl]-5H-pyrrolo[2,3-b]pyrazine] | < 100 | < 100 | < 100 | – | – |
| COCc1ccc(-c2cc3nc(CCc4cc(OC)cc(OC)c4)cnc3[nH]2)cc1 [Example 12, 2-[2-(3,5-dimethoxyphenyl)ethyl]-6-[4-(methoxymethyl)phenyl]-5H-pyrrolo[2,3-b]pyrazine] | < 100 | < 100 | < 100 | – | – |
| COc1cc(CCc2cnc3[nH]c(-c4ccc(CO)cc4)cc3n2)cc(OC)c1 [Example 13, (4-{2-[2-(3,5-dimethoxyphenyl)ethyl]-5H-pyrrolo[2,3-b]pyrazin-6-yl}phenyl)methanol] | < 100 | < 100 | < 100 | – | – |
| COc1cc(CCc2cnc3[nH]c(-c4ccc(C(=O)O)cc4)cc3n2)cc(OC)c1 [Example 15, 4-{2-[2-(3,5-dimethoxyphenyl)ethyl]-5H-pyrrolo[2,3-b]pyrazin-6-yl}benzoic acid] | < 100 | < 100 | < 100 | – | – |
| COc1cc(CCc2cnc3[nH]c(-c4cnc(N(C)C)nc4)cc3n2)cc(OC)c1 [Example 20, 5-{2-[2-(3,5-dimethoxyphenyl)ethyl]-5H-pyrrolo[2,3-b]pyrazin-6-yl}-N,N-dimethylpyrimidin-2-amine] | – | < 100 | – | > 1000 | 100 to 500 |
| COc1cc(CCc2cnc3[nH]c(-c4ccc5c(c4)OCO5)cc3n2)cc(OC)c1 [Example 21, 6-(1,3-benzodioxol-5-yl)-2-[2-(3,5-dimethoxyphenyl)ethyl]-5H-pyrrolo[2,3-b]pyrazine] | – | – | – | > 2000 | – |
| COc1cc(CCc2cnc3[nH]c(-c4ccc(C5CCN(C)CC5)cc4)cc3n2)cc(OC)c1 [Example 22, 2-[2-(3,5-dimethoxyphenyl)ethyl]-6-[4-(1-methylpiperidin-4-yl)phenyl]-5H-pyrrolo[2,3-b]pyrazine] | < 100 | < 100 | < 100 | – | – |
| COc1cc(CCc2cnc3[nH]c(C4CCN(C)CC4)cc3n2)cc(OC)c1 [Example 24, 2-[2-(3,5-dimethoxyphenyl)ethyl]-6-(1-methylpiperidin-4-yl)-5H-pyrrolo[2,3-b]pyrazine] | – | – | – | > 2000 | – |
| CNC(=O)c1cc2nc(CCc3cc(OC)cc(OC)c3)cnc2[nH]1 [Example 25, 2-[2-(3,5-dimethoxyphenyl)ethyl]-N-methyl-5H-pyrrolo[2,3-b]pyrazine-6-carboxamide] | – | – | – | > 2000 | – |
| COc1cc(CCc2cnc3[nH]c(C(=O)N(C)C)cc3n2)cc(OC)c1 [Example 26, 2-[2-(3,5-dimethoxyphenyl)ethyl]-N,N-dimethyl-5H-pyrrolo[2,3-b]pyrazine-6-carboxamide] | – | – | 500 to 2700 | > 2000 | – |
| CCN(CC)CC#Cc1cc2nc(CCc3cc(OC)cc(OC)c3)cnc2[nH]1 [Example 27, 3-{2-[2-(3,5-dimethoxyphenyl)ethyl]-5H-pyrrolo[2,3-b]pyrazin-6-yl}-N,N-diethylprop-2-yn-1-amine] | – | < 100 | – | > 2000 | 100 to 500 |
| CCN(CC)CCCc1cc2nc(CCc3cc(OC)cc(OC)c3)cnc2[nH]1 [Example 28, 3-{2-[2-(3,5-dimethoxyphenyl)ethyl]-5H-pyrrolo[2,3-b]pyrazin-6-yl}-N,N-diethylpropan-1-amine] | – | – | – | > 2000 | – |

| Compound | IC50 (FGFR3 enzyme (Millipore); class symbols) [nM] | IC50 (FGFR1) [nM] | IC50 (FGFR2; [1]) [nM] | IC50 (FGFR3 enzyme (Millipore); numeric bounds) [nM] | IC50 (FGFR2) [nM] |
| --- | --- | --- | --- | --- | --- |
| COc1cc(CCc2cnc3[nH]c(-c4cnn(CCN5CCOCC5)c4)cc3n2)cc(OC)c1 [Example 31, 2-[2-(3,5-dimethoxyphenyl)ethyl]-6-[1-(2-morpholin-4-ylethyl)-1H-pyrazol-4-yl]-5H-pyrrolo[2,3-b]pyrazine] | < 100 | < 100 | < 100 | – | – |
| COc1cc(CCc2cnc3[nH]c(-c4cnn(C5CCOCC5)c4)cc3n2)cc(OC)c1 [Example 32, 2-[2-(3,5-dimethoxyphenyl)ethyl]-6-[1-(tetrahydro-2H-pyran-4-yl)-1H-pyrazol-4-yl]-5H-pyrrolo[2,3-b]pyrazine] | < 100 | < 100 | < 100 | – | – |
| COc1cc(CCc2cnc3[nH]c(-c4cnn(CC(C)(C)O)c4)cc3n2)cc(OC)c1 [Example 33, 1-(4-{2-[2-(3,5-dimethoxyphenyl)ethyl]-5H-pyrrolo[2,3-b]pyrazin-6-yl}-1H-pyrazol-1-yl)-2-methylpropan-2-ol] | < 100 | < 100 | < 100 | – | – |
| COc1cc(CCc2cnc3[nH]c(-c4cnn(CCN(C)C)c4)cc3n2)cc(OC)c1 [Example 34, 2-(4-{2-[2-(3,5-dimethoxyphenyl)ethyl]-5H-pyrrolo[2,3-b]pyrazin-6-yl}-1H-pyrazol-1-yl)-N,N-dimethylethanamine] | < 100 | < 100 | < 100 | – | – |
| COc1cc(CCc2cnc3[nH]c(-c4cnn(C(CC#N)C5CCCC5)c4)cc3n2)cc(OC)c1 (stereo not shown) [Example 35, 3-cyclopentyl-3-(4-{2-[2-(3,5-dimethoxyphenyl)ethyl]-5H-pyrrolo[2,3-b]pyrazin-6-yl}-1H-pyrazol-1-yl)propanenitrile] | < 100 | < 100 | < 100 | – | – |
| COc1cc(CCc2cnc3[nH]c(-c4cnn(C(C)CC#N)c4)cc3n2)cc(OC)c1 (stereo not shown) [Example 36, 3-(4-(2-(3,5-dimethoxyphenethyl)-5H-pyrrolo[2,3-b]pyrazin-6-yl)-1H-pyrazol-1-l)butanenitrile] | < 100 | < 100 | < 100 | – | – |
| COc1cc(CCc2cnc3[nH]c(-c4cnn(C[C@H](C)O)c4)cc3n2)cc(OC)c1 [Example 39, (2S)-1-(4-{2-[2-(3,5-dimethoxyphenyl)ethyl]-5H-pyrrolo[2,3-b]pyrazin-6-yl}-1H-pyrazol-1-yl)propan-2-ol] | < 100 | < 100 | < 100 | – | – |
| COc1cc(CCc2cnc3[nH]c(-c4cnn(CCN5CCC(O)CC5)c4)cc3n2)cc(OC)c1 [Example 40, 1-[2-(4-{2-[2-(3,5-dimethoxyphenyl)ethyl]-5H-pyrrolo[2,3-b]pyrazin-6-yl}-1H-pyrazol-1-yl)ethyl]piperidin-4-ol] | < 100 | < 100 | < 100 | – | – |
| COc1cc(CCc2cnc3[nH]c(-c4cnn(CCN5CCCCC5)c4)cc3n2)cc(OC)c1 [Example 41, 2-[2-(3,5-dimethoxyphenyl)ethyl]-6-[1-(2-piperidin-1-ylethyl)-1H-pyrazol-4-yl]-5H-pyrrolo[2,3-b]pyrazine] | < 100 | < 100 | < 100 | – | – |
| COc1cc(CCc2cnc3[nH]c(-c4cnn(CC(=O)N5CCN(C)CC5)c4)cc3n2)cc(OC)c1 [Example 44, 2-(4-(2-(3,5-dimethoxyphenethyl)-5H-pyrrolo[2,3-b]pyrazin-6-yl)-1H-pyrazol-1-yl)-1-(4-methylpiperazin-1-yl)ethanone] | < 100 | < 100 | < 100 | – | – |
| COc1cc(CCc2cnc3[nH]c(-c4ccc(N5CCN(C)CC5)cc4)c(C#N)c3n2)cc(OC)c1 [Example 45, 2-[2-(3,5-dimethoxyphenyl)ethyl]-6-[4-(4-methylpiperazin-1-yl)phenyl]-5H-pyrrolo[2,3-b]pyrazine-7-carbonitrile] | < 100 | < 100 | < 100 | – | – |
| COc1cc(CCc2cnc3[nH]c(-c4ccc(N5CCN(C)CC5)cc4)c(Br)c3n2)cc(OC)c1 [Example 46, 7-bromo-2-[2-(3,5-dimethoxyphenyl)ethyl]-6-[4-(4-methylpiperazin-1-yl)phenyl]-5H-pyrrolo[2,3-b]pyrazine] | < 100 | < 100 | < 100 | – | – |
| COc1cc(CCc2cnc3[nH]c(-c4ccc(N5CCN(C)CC5)cc4)c(Cl)c3n2)cc(OC)c1 [Example 47, 7-chloro-2-[2-(3,5-dimethoxyphenyl)ethyl]-6-[4-(4-methylpiperazin-1-yl)phenyl]-5H-pyrrolo[2,3-b]pyrazine] | < 100 | < 100 | < 100 | – | – |
| COc1cc(CCc2cnc3[nH]c(-c4ccc(F)c(C#N)c4)cc3n2)cc(OC)c1 [Example 65, 5-(2-(3,5-Dimethoxyphenethyl)-5H-pyrrolo[2,3-b]pyrazin-6-yl)-2-fluorobenzonitrile] | – | < 100 | < 100 | – | – |
| COc1cc(CCc2cnc3[nH]c(-c4ccc(N5CCN(C)CC5)c(C#N)c4)cc3n2)cc(OC)c1 [Example 72, 5-(2-(3,5-Dimethoxyphenethyl)-5H-pyrrolo[2,3-b]pyrazin-6-yl)-2-(4-methylpiperazin-1-yl)benzonitrile] | – | < 100 | < 100 | – | – |
